# Test results reported in US8343985B2, “Methods for modulating Lyn kinase activity and treating related disorders” (Melior Pharmaceuticals I, Inc., priority 2005, dated 2013).
# Entries after “also recorded” stand apart in the source; their conditions may differ.
# How the values were obtained:
# [1] = tested on: mouse model of hyperglycemia; assay: Oral glucose tolerance test in mice (mouse model of hyperglycemia); type: in vivo; details: for blood glucose levels / blood glucose load in mouse model of type II diabetes: mice administered high levels of glucose
# From the text: Type II diabetes is characterized by high blood glucose levels in the presence of normal amounts of insulin. Animal models of type II diabetes involve administering high levels of glucose and measuring blood glucose levels and the ability of the experimental animal to maintain glucose homeostasis over time. Several pharmacological structural classes can effectively regulate this hyperglycemic response including sulfonylureas, thiazoladinediones (PPARγ agonists; glitazones) or metformin (glucophage). These drug classes are also clinically approved for use in humans. In the current study, we established a mouse model of hyperglycemia by administering high levels of glucose to mice.
# Glucose was formulated in water at a concentration of 150 mg/ml and dosed at a volume of 10 ml/kg to produce a dose of 1.5 g/kg. Glucose was measured using the Ascensia II Elite XL glucose monitor (Bayer). Measure glucose by taking a small (2 mm) section off the tip of the tail, bleed onto glucose test strip and measure. Data for each time point analyzed by ANOVA and post-hoc Tukey's test. A p value of less then 0.05 was used to indicate statistical significance.
# In study 1, mice were dosed with Compound 102 and glucose as follows:
# In study 2, mice were dosed with Compound 102 and glucose as follows.
# Study 3 tested Compound 102 and was conducted as follows: […]
# [2] = tested on: Male CD1/ICR mice fed Western Diet; assay: Western diet study: weight gain, food intake, fat pad weights; type: in vivo
# From the text: Male CD1/ICR mice were obtained from Harlan. The study was started when mice were 8 weeks of age. Prior to initiation of the study mice fasted for 24 hrs. Mice were fed “Western Diet” that was designed to approximate the “typical” human diet of North America and Europe (Research Diets; New Brunswick, N.J.; Western Diet composition). The Western Diet contained greater then 5 times more fat then normal chow. [table] Mice were weighed daily beginning from the start of the 24 hr fasting period. Food intake was monitored continuously. Mice were bled by retroorbital eyebleed on days 7, 14, 21 and 28 after the initiation of the study. On day of REB mice were dosed 1× with full dose 1 hr prior to bleed. Fat pads were dissected at the end of the study (day 31) weighed and frozen. The following fat pads were dissected: brown, inguinal, axial, mesenteric, renal and epidydimal. Data were averaged and analyzed by ANOVA followed by a post-hoc Tukey's test with a p value of less then 0.05 indicating a statistical difference.
# [3] = tested on: Zucker rats; assay: In vivo Zucker rat glucose study; details: 30 mg/kg ip, glucose 1.5 g/kg, 30 and 270 minutes
# Protocol: Zucker rats and corresponding lean rats were supplied by Harlan. Rats were fed a normal diet, ad libitum, and kept on a 12 hr light/dark cycle. Rats were housed 3 per cage. At 12 weeks of age, Zucker rats were administered Compound 102 at a concentration of 30 mg/kg (ip). Blood glucose levels were measured 30 minutes after administration. Forty-five minutes after drug administration, animals were administered a glucose solution (1.5 g/kg) by oral gavage. Blood glucose levels were measured every 30 minutes after gavage for 4.5 hrs. There were 3 groups with 3 animals per group: 1) 3 Zucker leans (no drug; no glucose treatment); 2) Zucker vehicle treated group (glucose challenged and 3) Zucker Compound 102 treatment (30 mg/kg); glucose challenged.
# [4] = tested on: leptin; assay: Leptin levels in Western diet treated animals (ELISA); type: in vivo; details: Western diet mice
# Protocol: Blood from mice that were on western diet (Compound 102) were analyzed for leptin levels. Mice were bled by retroorbital eyebleed on days 7, 14, 21 and 28 after the initiation of the study. On day of REB mice were dosed once with full dose 1 hr prior to bleed. Leptin levels were determined by ELISA (R&D Systems) as per directions. Data are expressed as the average ±SEM. Data were averaged and analyzed by ANOVA followed by a post-hoc Tukey's test with a p value of less then 0.05 indicating a statistical difference.
# [5] = molecular target: Lyn Kinase enzyme (Homo sapiens, UniProt P07948); assay: In vitro Lyn kinase enzyme activity; type: biochemical; details: FIG. 12
# [6] = tested on: Db/Db mice; assay: In vivo Db/Db mouse glucose study
# Protocol: (§1) Db/Db and Db/lean mice were obtained from Harlan at 6 weeks of age. Mice were housed 3 per cage and fed ad libitum normal rodent chow. Mice were kept on a 12 hr Light:dark cycle.
# (§2) The study was initiated when mice reached an age of 8 weeks and their baseline blood glucose levels were greater than 200 mg/dl. Compound 102 was formulated in PBS: 2N HCl (99:1) at concentrations of 0.5, 1.5 and 5 mg/ml. Mice were dosed at volumes of 10 ml/kg to produce doses of 5, 15 and 50 mg/kg/dose. Mice were dosed twice per day at an 8 hr interval (8 am and 4 pm) during the light cycle.
# For the acute blood glucose measurements, blood glucose levels were measured after the animals received their first dose of Compound 102. Blood glucose levels were measured two hrs after this initial injection.
# [7] = tested on: Db/Db mice; assay: In vivo Db/Db mouse obesity study; details: chronic administration to mice
# [8] = tested on: Db/Db mice; assay: In vivo Db/Db mouse obesity study
# Protocol: as §1, §2
# Mice were administered vehicle or drug (i.e., Compound 102) (5, 15, and 50 mg/kg) twice per day (bid) for the 28 days. Mouse weight and food intake were monitored daily. Food intake is reported as food intake (grams) per mouse per 24 hr period.
# [9] = single dose of 2 or 10 mg/kg, FIG. 3
# Sequence of Lyn Kinase enzyme (P07948 whole entry): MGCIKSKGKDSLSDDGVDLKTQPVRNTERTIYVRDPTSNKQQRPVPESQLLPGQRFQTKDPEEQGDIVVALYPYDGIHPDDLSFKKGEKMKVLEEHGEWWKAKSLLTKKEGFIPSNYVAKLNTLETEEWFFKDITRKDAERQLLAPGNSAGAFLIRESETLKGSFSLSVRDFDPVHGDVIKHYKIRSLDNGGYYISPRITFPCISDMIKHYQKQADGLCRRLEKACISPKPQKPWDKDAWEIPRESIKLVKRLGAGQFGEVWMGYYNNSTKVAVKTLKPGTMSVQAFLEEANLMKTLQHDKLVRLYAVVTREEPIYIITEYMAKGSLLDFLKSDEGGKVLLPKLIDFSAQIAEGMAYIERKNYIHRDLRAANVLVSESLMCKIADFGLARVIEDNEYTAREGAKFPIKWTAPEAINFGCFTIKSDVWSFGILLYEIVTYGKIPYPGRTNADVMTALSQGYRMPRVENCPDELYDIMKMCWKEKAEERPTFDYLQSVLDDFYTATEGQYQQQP
smiles,measurement,setting,value
O=c1ncc(Oc2cccc(Cl)c2)c[nH]1 [Compound 105],blood glucose levels / blood glucose load in mouse model of type II diabetes,[1],effective in reducing blood glucose levels
same,baseline blood glucose levels,[1]; [9],significantly depressed
same,blood glucose levels at all time points after administration,[1]; [9],significantly (P<0.05) reduced
"CN(C)C(=N)N=C(N)N [metformin, reference compound]",blood glucose levels / blood glucose load in mouse model of type II diabetes,[1],can effectively reduce the blood glucose load
Cc1cccc(Oc2cnc(=O)[nH]c2)c1 [Compound 102],food intake,[2],not affected
same,"brown, axial, inguinal, renal and epididymal fat pad increases",[2]; day 31,significantly reduced
same,weight gain,[2]; highest dose tested (30 mg/kg/day),significantly reduced; also recorded: significant alteration in weight change
same,blood glucose levels after oral glucose challenge,[3],reduced blood glucose levels at both time points; also recorded: reduction is blood glucose levels
same,blood glucose levels / blood glucose load in mouse model of type II diabetes,[1],effective in reducing blood glucose levels
same,time after drug administration at which significance was lost,"[1]; study 1, single administration, 30 mg/kg",90 min
same,normal blood glucose levels (pre-glucose loading),"[1]; study 1, single administration, 30 mg/kg, mice",significantly decreased
same,blood glucose levels produced by oral glucose administration,"[1]; study 1, single administration, 30 mg/kg, oral glucose 1.5 g/kg",significantly attenuated
same,effect on blood glucose levels,"[1]; study 2, increased dosing (four times at 30 minute intervals)",more dramatic effect
same,blood leptin levels,[4],reduced leptin levels to those fed a normal diet
same,in vitro activity of Lyn Kinase enzyme,[5],increased in vitro activity
same,acute blood glucose response upon study initiation and on weekly testing,[6]; 15 mg/kg and 50 mg/kg dose groups,acute dose response
same,blood glucose levels following acute administration,[6]; 2 hrs after first dose,reduce blood glucose levels; also recorded: reduction in glucose levels
same,"blood glucose levels, dose dependence","[6]; IP twice/day, four weeks",dose dependent effect
same,weight-gain response of animals fed a high fat diet,[7],significantly inhibited
same,"animal weight gain, dose dependence","[8]; Db/Db mice, IP twice/day, four weeks",dose dependent effect
same,food intake,"[8]; Db/Db mice, bid, 28 days",without affecting food intake
same,weight gain,"[8]; Db/Db mice, bid, 28 days",significantly lowered; also recorded: reduction in weight gain
same,defecation,[8]; chronic administration to mice,defecated normally
same,food intake compared to vehicle-treated animals,[8]; chronic administration to mice,normal food intake
same,hyperactivity (as with amphetamine class of weight-loss drugs),"[8]; mouse, in vivo",did not display the hyperactivity
